Legend:
[1] = molecular target: T1, hEP2 (Homo sapiens, UniProt P43116); assay: hEP2 flipr assay; assay type: cell-based
Excerpt: (§1) United States Patent Application Serial No. 11/553,143, filed on October 26, 2006, describes the methods used to obtain the in vitro data in the table below.

[2] = molecular target: T1, hEP2; assay: hEP2 cAMP assay; assay type: cell-based
Excerpt: as §1

[3] = molecular target: T1, hEP2; assay: hEP2 binding; conditions: read-out: hEP2 Kl
Excerpt: as §1

[4] = molecular target: T2, hEP4 (Homo sapiens, UniProt P35408); assay: hEP4 flipr assay; assay type: cell-based
T2 sequence (P35408 whole entry): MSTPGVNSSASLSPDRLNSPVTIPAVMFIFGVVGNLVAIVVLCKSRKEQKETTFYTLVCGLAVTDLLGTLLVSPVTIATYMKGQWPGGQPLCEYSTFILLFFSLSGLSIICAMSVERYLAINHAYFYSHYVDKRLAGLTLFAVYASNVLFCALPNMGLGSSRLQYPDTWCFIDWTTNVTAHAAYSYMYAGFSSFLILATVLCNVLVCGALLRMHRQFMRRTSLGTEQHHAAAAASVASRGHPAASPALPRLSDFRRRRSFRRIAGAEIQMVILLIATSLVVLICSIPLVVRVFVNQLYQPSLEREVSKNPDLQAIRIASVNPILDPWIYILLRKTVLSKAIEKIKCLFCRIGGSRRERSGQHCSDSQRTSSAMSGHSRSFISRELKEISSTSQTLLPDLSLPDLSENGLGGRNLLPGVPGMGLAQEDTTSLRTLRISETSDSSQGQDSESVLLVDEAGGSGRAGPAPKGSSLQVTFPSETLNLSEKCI
Excerpt: as §1

[5] = molecular target: T2, hEP4; assay: hEP4 binding
Excerpt: as §1

T1 sequence (P43116 whole entry): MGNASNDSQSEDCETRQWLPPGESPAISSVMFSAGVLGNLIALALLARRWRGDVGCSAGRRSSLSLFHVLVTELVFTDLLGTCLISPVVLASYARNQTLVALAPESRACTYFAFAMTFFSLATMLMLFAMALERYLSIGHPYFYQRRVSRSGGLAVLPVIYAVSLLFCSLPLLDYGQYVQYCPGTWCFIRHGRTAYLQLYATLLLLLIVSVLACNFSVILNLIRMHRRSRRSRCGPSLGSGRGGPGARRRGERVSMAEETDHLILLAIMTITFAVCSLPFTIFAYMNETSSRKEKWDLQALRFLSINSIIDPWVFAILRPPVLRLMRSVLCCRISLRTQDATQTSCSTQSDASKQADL

- EC50 [1]: 424 nM
- EC50 [2]: 4.8 nM
- Ki [3]: 81 nM
- EC50 [4]: > 10000 nM
- Ki [5]: 1580 nM
SMILES: O=C(O)c1ccc(CCCC2=CC[C@@H](O)[C@@H]2COc2cc(Cl)cc(Cl)c2)s1 [Example 1, 5-{3[(4R,5S)-5-(3,5-Dichloro-phenoxymethyl)-4-hydroxy-cyclopent·1-enyl]-propyl}-thiophene-2-carboxylic acid]

Source: EP2114875B1, “SUBSTITUTED ARYLCYLOPENTENES AS THERAPEUTIC AGENTS” (ALLERGAN, INC., priority 2007, dated 2008)
